From patent US4661294A, “Biologically active 1-thio derivatives of vitamin D” (The General Hospital Corporation, priority 1985, dated 1987)

Key:
[1] = literature reports; cited from earlier work
human fibroblasts = assay: human fibroblast cell proliferation; assay type: cell-based; settings: for effect on the inhibitory effect of 1-alpha,25-dihydroxyvitamin D3 on cell generation: added to the 1-alpha,25-dihydroxy compound
Method: FIG. 4 is a graph comparing the effects of ethanol ( ), ethanol plus 1-alpha,25-dihydroxyvitamin D3 ( ), and 1-beta-thio-25-hydroxyvitamin D3 and 1-alpha,25-dihydroxyvitamin D3 ( ) on human fibroblast cell proliferation.
To confirm this, the effects of various compounds on cell proliferation rates were studied, using human fibroblasts to evaluate activity. Human fibroblasts were prepared as described by Clemens, J. Clin. Endocrinol. Met., 56: 197 (1983). In the study, 2.5×10^5 cells, in quadruplicate, were exposed to (a) 95% ethanol; (b) ethanol plus 1-alpha-25-dihydroxyvitamin D3 ( ); or (c) 1-beta-thio-25-hydroxyvitamin D3 plus 1-alpha, 25-dihydroxyvitamin D3 ( ). As may be seen from FIG. 4, the 1-alpha-25-dihydroxy-vitamin D3 inhibited cell generation by about 30% ( ). […] Further, the 1-thio compound alone had no effect on cell generation time (data not shown).

[2] = target: T1, chick cytosolic receptor (1,25-dihydroxyvitamin receptor site) (Gallus gallus, UniProt O42392); assay: competition with 3H-1,25-dihydroxyvitamin D3 for receptor site (procedure of Eisman et al.); assay type: binding
T1 sequence (O42392 1-451): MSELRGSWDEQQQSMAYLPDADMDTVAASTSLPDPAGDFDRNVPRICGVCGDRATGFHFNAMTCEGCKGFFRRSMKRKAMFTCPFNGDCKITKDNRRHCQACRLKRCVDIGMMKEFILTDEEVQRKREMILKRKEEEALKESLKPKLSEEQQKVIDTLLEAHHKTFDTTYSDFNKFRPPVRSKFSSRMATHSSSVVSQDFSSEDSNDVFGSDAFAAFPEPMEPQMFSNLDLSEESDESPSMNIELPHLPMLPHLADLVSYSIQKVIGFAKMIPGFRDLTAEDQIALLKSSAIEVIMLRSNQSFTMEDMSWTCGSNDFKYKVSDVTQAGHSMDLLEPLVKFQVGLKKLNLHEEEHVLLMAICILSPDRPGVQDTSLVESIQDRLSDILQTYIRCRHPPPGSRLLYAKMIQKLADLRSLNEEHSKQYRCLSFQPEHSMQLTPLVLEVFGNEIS
Description: FIG. 3 is a graph comparing the binding characteristics of 1-alpha,25-dihydroxyvitamin D3 ( ) and 1-beta-thio-25-hydroxyvitamin D3 (Δ) using chick cytosolic receptor.
Thus, the 1-beta-thio-25-hydroxyvitamin D3 can be used as a biologically active analogue of the natural compound.

For C=C1/C(=C\C=C2/CCC[C@]3(C)[C@@H]([C@H](C)CCCC(C)(C)F)CC[C@@H]23)C[C@@H](O)C[C@@H]1F [1-alpha-25-difluoro vitamin D3], the biological activity [1] is given as “biologically inert”.
In the case of C=C1/C(=C\C=C2/CCC[C@]3(C)[C@@H]([C@H](C)CCCC(C)(C)O)CC[C@@H]23)C[C@@H](O)C[C@@H]1O [1-alpha-25-dihydroxy-vitamin D3, 1-alpha,25-dihydroxyvitamin D3, reference compound], the “inhibition of cell generation” value (human fibroblasts; human fibroblasts, 2.5×10^5 cells, FIG. 4) is reported as “about 30%”.
With C=C1/C(=C\C=C2/CCC[C@]3(C)[C@@H]([C@H](C)CCCC(C)(C)O)CC[C@@H]23)C[C@@H](O)C[C@H]1S [1-beta-thio-25-hydroxyvitamin D3, 1-beta-thio-25-hydroxy vitamin D3] the “competition with 3H-1,25-dihydroxyvitamin D3 for the receptor site / recognition by the cytosol receptor site” value ([2]; FIG. 3) was “able to compete”, the “competition with 3H-1,25-dihydroxyvitamin D3 for the receptor site / recognition by the cytosol receptor site” value ([2]; FIG. 3, listed as 1-beta-thio-hydrovitamin D3) was “recognized by the cytosol receptor site” and the “effect on the inhibitory effect of 1-alpha,25-dihydroxyvitamin D3 on cell generation” value (human fibroblasts; human fibroblasts, FIG. 4) was “blocked the inhibitory effect”. For the same compound, the “effect on the inhibitory effect of 1-alpha,25-dihydroxyvitamin D3 on cell generation” value (human fibroblasts; human fibroblasts, FIG. 4, listed as 1-beta-thio-hydrovitamin D3) was “blocks the ability of the 1,25-dihydroxy compound from affecting in vitro fibroblast cell division” and the “effect on cell generation time” value (human fibroblasts; compound alone (data not shown)) was “no effect”.
In the case of C=C1/C(=C\C=C2/CCC[C@]3(C)[C@@H]([C@H](C)CCCC(C)C)CC[C@@H]23)C[C@@H](O)CC1F (some centres unmarked) [1-fluoro vitamin D3], the biological activity [1] is listed as “possess biological activity”.
